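Growth conditions: 96-well plates. Treatment: test compound, 48 hours, 5 concentrations. Analysis: linear interpolation between bracketing concentrations; unreached endpoints set to highest concentration. TGI marks complete inhibition of growth.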
Legend:
Experiment in all cases: NCI-60 cell line screen, 48 h
[1] = tested on: DU-145 prostate
[2] = tested on: UO-31 renal
[3] = tested on: UACC-257 melanoma
[4] = tested on: HOP-62 NSCLC
[5] = tested on: CCRF-CEM leukemia
[6] = tested on: NCI/ADR-RES ovarian
[7] = tested on: SW-620 colon
[8] = tested on: NCI-H522 lung
[9] = tested on: BT-549 breast
[10] = tested on: HS 578T breast
[11] = tested on: HOP-92 NSCLC
[12] = tested on: MDA-MB-231 breast
[13] = tested on: HT29 colon
[14] = tested on: CAKI-1 renal
[15] = tested on: HCC-2998 colon
[16] = tested on: PC-3 prostate
[17] = tested on: KM12 colon
[18] = tested on: COLO 205 colon
[19] = tested on: SNB-19 CNS
[20] = tested on: MDA-N
[21] = tested on: MOLT-4 leukemia
[22] = tested on: K-562 leukemia
[23] = tested on: SK-MEL-2 melanoma
[24] = tested on: M14 melanoma
[25] = tested on: SNB-75 CNS
[26] = tested on: OVCAR-4 ovarian
[27] = tested on: IGROV1 ovarian
[28] = tested on: SF-539 CNS
[29] = tested on: T-47D breast
[30] = tested on: 786-0 renal
[31] = tested on: EKVX NSCLC
[32] = tested on: SR leukemia
[33] = tested on: A549 NSCLC
[34] = tested on: TK-10 renal
[35] = tested on: OVCAR-5 ovarian
[36] = tested on: HCT-116 colon
[37] = tested on: MALME-3M melanoma
[38] = tested on: SF-295 CNS
[39] = tested on: OVCAR-3 ovarian
[40] = tested on: SF-268 CNS
[41] = tested on: MDA-MB-435
[42] = tested on: U251 CNS
[43] = tested on: SK-OV-3 ovarian
[44] = tested on: NCI-H23 lung
[45] = tested on: SK-MEL-5 melanoma
[46] = tested on: LOX IMVI melanoma
[47] = tested on: OVCAR-8 ovarian
[48] = tested on: HCT-15 colon
[49] = tested on: UACC-62 melanoma
[50] = tested on: HL-60(TB) leukemia
[51] = tested on: SN12C renal
[52] = tested on: RPMI-8226 leukemia
[53] = tested on: ACHN renal
[54] = tested on: NCI-H226 lung
[55] = tested on: MCF7 breast
[56] = tested on: RXF 393 renal
[57] = tested on: NCI-H460 lung
[58] = tested on: A498 renal
[59] = tested on: SK-MEL-28 melanoma

## COC1CC(OC2C(C)OC(OC3C(C)OC(OC4C(C)OC(O[C@H]5CC[C@@]6(C)C(=CC[C@]7(O)[C@@H]6C[C@@H](OC(=O)/C=C(\C)C(C)C)[C@@]6(C)[C@]7(O)CC[C@@]6(O)C(C)=O)C5)CC4OC)CC3OC)CC2OC)OC(C)C1O (some centres undefined)
[1]
  TGI: > 12.5 µM
[2]
  TGI: > 12.5 µM
[3]
  TGI: > 12.5 µM
[4]
  TGI: > 12.5 µM
[5]
  TGI: > 12.5 µM
[6]
  TGI: > 12.5 µM
[7]
  TGI: > 12.5 µM
[8]
  TGI: > 12.5 µM
[9]
  TGI: > 12.5 µM
[10]
  TGI: > 12.5 µM
[11]
  TGI: > 12.5 µM
[12]
  TGI: > 12.5 µM
[13]
  TGI: > 12.5 µM
[14]
  TGI: > 12.5 µM
[15]
  TGI: > 12.5 µM
[16]
  TGI: > 12.5 µM
[17]
  TGI: > 12.5 µM
[18]
  TGI: > 12.5 µM
[19]
  TGI: > 12.5 µM
[20]
  TGI: > 12.5 µM
[21]
  TGI: > 12.5 µM
[22]
  TGI: > 12.5 µM
[23]
  TGI: > 12.5 µM
[24]
  TGI: > 12.5 µM
[25]
  TGI: > 12.5 µM
[26]
  TGI: > 12.5 µM
[27]
  TGI: > 12.5 µM
[28]
  TGI: > 12.5 µM
[29]
  TGI: > 12.5 µM
[30]
  TGI: > 12.5 µM
[31]
  TGI: > 12.5 µM
[32]
  TGI: > 12.5 µM
[33]
  TGI: > 12.5 µM
[34]
  TGI: > 12.5 µM
[35]
  TGI: > 12.5 µM
[36]
  TGI: > 12.5 µM
[37]
  TGI: > 12.5 µM
[38]
  TGI: > 12.5 µM
[39]
  TGI: > 12.5 µM
[40]
  TGI: > 12.5 µM
[41]
  TGI: > 12.5 µM
[42]
  TGI: > 12.5 µM
[43]
  TGI: > 12.5 µM
[44]
  TGI: > 12.5 µM
[45]
  TGI: > 12.5 µM
[46]
  TGI: > 12.5 µM
[47]
  TGI: > 12.5 µM
[48]
  TGI: > 12.5 µM
[49]
  TGI: > 12.5 µM
[50]
  TGI: > 12.5 µM
[51]
  TGI: > 12.5 µM
[52]
  TGI: > 12.5 µM
[53]
  TGI: > 12.5 µM
[54]
  TGI: > 12.5 µM
[55]
  TGI: > 12.5 µM

## COc1cc(C[C@@H](C)N)cc(OC)c1
[1]
  TGI: > 100 µM
[2]
  TGI: > 100 µM
[3]
  TGI: > 100 µM
[4]
  TGI: > 100 µM
[5]
  TGI: > 100 µM
[6]
  TGI: > 100 µM
[7]
  TGI: > 100 µM
[8]
  TGI: > 100 µM
[9]
  TGI: > 100 µM
[10]
  TGI: > 100 µM
[12]
  TGI: > 100 µM
[13]
  TGI: > 100 µM
[14]
  TGI: > 100 µM
[15]
  TGI: > 100 µM
[16]
  TGI: > 100 µM
[17]
  TGI: > 100 µM
[18]
  TGI: > 100 µM
[19]
  TGI: > 100 µM
[56]
  TGI: > 100 µM
[20]
  TGI: > 100 µM
[21]
  TGI: > 100 µM
[22]
  TGI: > 100 µM
[23]
  TGI: > 100 µM
[24]
  TGI: > 100 µM
[57]
  TGI: > 100 µM
[25]
  TGI: 98.4 µM
[26]
  TGI: > 100 µM
[27]
  TGI: > 100 µM
[28]
  TGI: > 100 µM
[29]
  TGI: > 100 µM
[30]
  TGI: > 100 µM
[32]
  TGI: > 100 µM
[33]
  TGI: > 100 µM
[34]
  TGI: > 100 µM
[35]
  TGI: > 100 µM
[36]
  TGI: > 100 µM
[37]
  TGI: > 100 µM
[58]
  TGI: > 100 µM
[38]
  TGI: > 100 µM
[39]
  TGI: > 100 µM
[40]
  TGI: > 100 µM
[41]
  TGI: > 100 µM
[42]
  TGI: > 100 µM
[43]
  TGI: > 100 µM
[44]
  TGI: > 100 µM
[45]
  TGI: > 100 µM
[46]
  TGI: > 100 µM
[47]
  TGI: > 100 µM
[48]
  TGI: > 100 µM
[49]
  TGI: > 100 µM
[50]
  TGI: > 100 µM
[59]
  TGI: > 100 µM
[51]
  TGI: > 100 µM
[52]
  TGI: > 100 µM
[53]
  TGI: > 100 µM
[54]
  TGI: > 100 µM
[55]
  TGI: > 100 µM

## CC(=O)C1=C(c2ccccc2)N(C2OC(CO)C(O)C(O)C2O)C(S)=C(C#N)C1c1ccc(Cl)cc1 (centres undefined)
[1]
  TGI: > 100 µM
[2]
  TGI: > 100 µM
[3]
  TGI: 49.4 µM
[4]
  TGI: 59.9 µM
[5]
  TGI: > 100 µM
[6]
  TGI: > 100 µM
[7]
  TGI: 34.5 µM
[8]
  TGI: 48.1 µM
[9]
  TGI: 35.6 µM
[10]
  TGI: 78.5 µM
[11]
  TGI: 88.7 µM
[12]
  TGI: 61.8 µM
[13]
  TGI: > 100 µM
[14]
  TGI: 75 µM
[15]
  TGI: 34.3 µM
[16]
  TGI: 42.2 µM
[17]
  TGI: 42.1 µM
[18]
  TGI: 40.6 µM
[19]
  TGI: > 100 µM
[56]
  TGI: 85.3 µM
[20]
  TGI: 51.5 µM
[21]
  TGI: 35.3 µM
[22]
  TGI: > 100 µM
[23]
  TGI: 29.2 µM
[24]
  TGI: 46.7 µM
[57]
  TGI: 52.7 µM
[25]
  TGI: 78.8 µM
[26]
  TGI: > 100 µM
[27]
  TGI: > 100 µM
[28]
  TGI: 50 µM
[29]
  TGI: 40.4 µM
[30]
  TGI: 80.6 µM
[32]
  TGI: > 100 µM
[33]
  TGI: > 100 µM
[34]
  TGI: > 100 µM
[35]
  TGI: > 100 µM
[36]
  TGI: 30.6 µM
[37]
  TGI: 50.4 µM
[58]
  TGI: > 100 µM
[38]
  TGI: 99.6 µM
[39]
  TGI: 37.2 µM
[40]
  TGI: 73.9 µM
[41]
  TGI: 51.2 µM
[42]
  TGI: 35.2 µM
[44]
  TGI: > 100 µM
[45]
  TGI: 34.9 µM
[46]
  TGI: 34.1 µM
[47]
  TGI: > 100 µM
[48]
  TGI: > 100 µM
[49]
  TGI: 30.8 µM
[50]
  TGI: > 100 µM
[59]
  TGI: 41.6 µM
[51]
  TGI: > 100 µM
[52]
  TGI: > 100 µM
[53]
  TGI: > 100 µM
[54]
  TGI: 58.8 µM
[55]
  TGI: 42 µM

Source: PubChem BioAssay (NCI)
